{
  "source": "paper PMC5115179",
  "about": "(Pharmacology Research & Perspectives, 2016)",
  "key": {"rat [1]": {"tested_on": "rat", "parameters": "method as in Poggioli et al., 1999", "conditions": "rat, 25, 100, 200 mg/kg p.o.; ref Poggioli et al., 1999; cited from earlier work"}, "rat [2]": {"tested_on": "rat", "parameters": "method as in Baker et al., 2008", "conditions": "rat, 25, 50, 100 mg/kg i.g.; ref Baker et al., 2008; cited from earlier work"}, "rat [3]": {"tested_on": "rat", "parameters": "method as in Lamb et al., 2003", "conditions": "rat, 3.2, 32 mg/kg i.p; ref Lamb et al., 2003; cited from earlier work"}, "rat [4]": {"tested_on": "rat", "parameters": "method as in Schmidt-Mutter et al., 1998", "conditions": "300 mg/kg i.p., ref Schmidt-Mutter et al., 1998; cited from earlier work"}, "mouse": {"tested_on": "mouse", "parameters": "method as in Martellotta et al., 1998", "conditions": "12.5 mg/kg i.p., ref Martellotta et al., 1998; cited from earlier work"}, "rat [5]": {"tested_on": "rat", "parameters": "method as in Nava et al., 2001", "conditions": "dose n.s., i.p., ref Nava et al., 2001; cited from earlier work"}, "pigeon": {"tested_on": "pigeon", "parameters": "method as in Koek et al., 2006", "conditions": "pigeon, 54, 178, 320, 560 mg/kg, route ns; ref Koek et al., 2006; cited from earlier work"}, "[6]": {"assay": "NCS‐382–diclofenac interaction study (inhibition of NCS‐382 glucuronidation)", "conditions": "mouse", "method": "In this study, mice (n = 3–4 per group) were assigned (balanced for weight and gender) to one of three treatments and collected at one of three time points (0.5, 1, or 2 h)."}, "[7]": {"assay": "Metabolite formation kinetics in HLMs", "assay_type": "in vitro ADME", "conditions": "human liver microsomes", "description": "Microsomal incubations were conducted as described above with modifications. […] The K m was calculated using nonlinear regression in Graphpad Prism. Due to the lack of authentic standard and relatively short rate of parent disappearance, the maximum formation velocity (V max) could not be determined for either metabolites."}, "in vivo": {"assay": "in vivo", "assay_type": "in vivo", "conditions": "mouse; for half-life / Kp / AUC / CL/F / Cmax: both sexes, ip; for Kp: C57/B6, brain/serum, read-out: Brain to sera AUC ratio", "description": "In pharmacokinetic studies, mice were not randomized to groups but instead assigned to treatment and time points such that there was no gender of weight bias. Studies were initiated in the morning and following treatment mice were euthanized by CO2 asphyxiation and cervical dislocation at predetermined time points (0.25, 0.5, 1, 2, 4, 8, 12, and 24 h) (n = 3–4 animals per time point). Blood (via cardiac puncture), brain, liver, and kidney were rapidly collected, tissues were snap‐frozen in liquid nitrogen, and stored at −80°C prior to further analysis. Sera (20–100 μL) was obtained by low‐speed centrifugation at 2000 × g for 10 min at 6°C. Tissues were suspended in phosphate‐buffered saline (PBS, 1:5, w/v) and homogenized via mechanical homogenization before preparation for LC‐MS/MS analysis.\nSamples (3 μL) were injected onto a Kinetex PFP (50 × 2.1 mm, 1.7 μm particle size) UPLC column and eluted with a binary gradient consisting of water with 0.1% formic acid (mobile phase A) and methanol with 0.1% formic acid (mobile phase B). Initially, 5% mobile phase B was held for 0.4 min at a flow rate of 0.3 mL/min, then increased linearly to 85% over 2.6 min. This composition was held constant for 0.5 min then returned to initial conditions within 6 sec and equilibrated for an additional 1.8 min. Eluent was directed to waste for the initial 0.4 min then to an ABI Sciex 6500 Qtrap tandem mass spectrometer. […] Where necessary, samples were diluted in blank matrices for analysis. Methods were developed using the criteria presented in the FDA bioanalytical guidance document (www.fda.gov, 2013).\nPharmacokinetic outcomes were obtained via standard noncompartmental methods using Kinetica (version 5.1, Thermo Fisher Scientific, Waltham, MA). The maximum concentration (C max) was obtained directly from the concentration–time profiles. Area under the concentration–time curve (AUC) from time zero to the last collected time point was determined using the trapezoidal method with linear up/log down interpolation. For sera and urine, data above the limit of detection but below the LLOQ were computed as LLOQ/2 (7 nmol/L, 7.5 μg/mL, respectively) to allow for the recovery of the terminal half‐life as reported previously (Beal 2001). To obtain estimates of variability around the mean of AUC and C max, the method of Bailer–Satterwaithe was employed due to the destructive sampling approach (Nedelman et al. 1995). Furthermore, as a result of the destructive sampling approach outcomes for half‐life, apparent volume of distribution and apparent clearance could not be reported with a term for uncertainty."}, "rat [8]": {"tested_on": "rat", "parameters": "method as in Hicks et al., 2004", "conditions": "50 mg/kg i.v., ref Hicks et al., 2004; cited from earlier work"}, "aldh5a1^−/− mice": {"tested_on": "aldh5a1^−/− mice", "parameters": "method as in Gupta et al. 2002", "conditions": "ref Gupta et al. 2002; cited from earlier work"}, "rat [9]": {"tested_on": "rat", "parameters": "method as in Colombo et al., 1999", "conditions": "400 mg/kg i.p., ref Colombo et al., 1999; cited from earlier work"}, "[10]": {"conditions": "100 mg/kg i.p., tissue density assumed equal to water"}, "[11]": {"conditions": "300 mg/kg i.p., tissue density assumed equal to water"}, "[12]": {"conditions": "500 mg/kg i.p., tissue density assumed equal to water"}},
  "note": "Like-named read-outs stand apart in the source and are kept apart here.",
  "data": [
    {"smiles": "O=C(O)/C=C1\\CCCc2ccccc2C1O", "note": "(stereo not drawn) [NCS‐382, 6,7,8,9‐tetrahydro‐5‐hydroxy‐5H‐benzo‐cyclohept‐6‐ylideneacetic acid]", "values": [
      {"measurement": "gastric emptying", "setting": "rat [1]", "result": "dose dependently, ↓ gastric emptying"},
      {"measurement": "prokinetic effect of GHB", "setting": "rat [1]", "result": "antagonized the prokinetic effect of GHB"},
      {"measurement": "GHB's (300 mg/kg) discriminative stimulus effects", "setting": "rat [2]", "result": "GHB's (300 mg/kg) discriminative stimulus effects were obliterated by the GABAB receptor antagonist, CGP-35348 and slightly attenuated by NCS 382."},
      {"measurement": "motor effects of GHB", "setting": "rat [3]", "result": "NCS-382 did not antagonize the motor effects of GHB, consistent with the belief that many of the behavioral actions of exogenously administered GHB result from GHB's actions at sites other than the GHB receptor."},
      {"measurement": "reversal of the anxiolytic effect of GHB", "setting": "rat [4]", "result": "The anxiolytic effect of GHB were reversed by the benzodiazepine receptor antagonist, flumazenil, but not by naloxone or NCS-382."},
      {"measurement": "abuse potential of GHB", "setting": "mouse", "result": "GHB was shown to have abuse potential, which was blocked by NCS-382."},
      {"measurement": "GHB-induced decrease of hippocampal acetylcholine release", "setting": "rat [5]", "result": "GHB-induced ↓ of hippocampal acetylcholine release is mediated by GABAB receptors, based on ineffective blocking by NCS-382."},
      {"measurement": "effects of diazepam", "setting": "pigeon", "result": "GHB, its precursors 1,4-BD and GBL, and NCS-382 did not attenuate the effects of diazepam."},
      {"measurement": "AUC(0-t)", "setting": "[6]; both, in vivo, 300 mg/kg", "result": 411, "unit": "µM·h"},
      {"measurement": "Brain AUC0–2 h [90% CI]", "setting": "[6]; treatment NCS‐382 300 mg/kg + Diclofenac 25 mg/kg", "result": "182 [164–200] ^a nmol/g/tissue*h"},
      {"measurement": "Brain AUC0–2 h [90% CI]", "setting": "[6]; treatment NCS‐382 300 mg/kg alone", "result": "128 [115–141] nmol/g/tissue*h"},
      {"measurement": "Km", "setting": "[7]; 120 min, read-out: Km for dehydrogenation", "result": "12.7 ± 4.8", "unit": "µM"},
      {"measurement": "Km", "setting": "[7]; saturation not obtained, read-out: Km for glucuronidation", "result": "> 100", "unit": "µM"},
      {"measurement": "half-life", "setting": "in vivo; C57/B6, brain, 100 mg/kg i.p., read-out: Brain t 1/2 (converted)", "result": 58, "unit": "min"},
      {"measurement": "half-life", "setting": "in vivo; C57/B6, brain, 300 mg/kg i.p., read-out: Brain t 1/2 (converted)", "result": 53, "unit": "min"},
      {"measurement": "half-life", "setting": "in vivo; C57/B6, brain, 500 mg/kg i.p., read-out: Brain t 1/2 (converted)", "result": 45.7, "unit": "min"},
      {"measurement": "Kp", "setting": "in vivo; 100 mg/kg i.p.", "result": 1.2},
      {"measurement": "Kp", "setting": "in vivo; 300 mg/kg i.p.", "result": 0.72},
      {"measurement": "Kp", "setting": "in vivo; 500 mg/kg i.p.", "result": 1.8},
      {"measurement": "half-life", "setting": "in vivo; C57/B6, kidney, 100 mg/kg i.p., read-out: Kidney t 1/2 (converted)", "result": 18.5, "unit": "min"},
      {"measurement": "AUC", "setting": "in vivo; C57/B6, serum, 100 mg/kg i.p.", "result": "119 ± 38", "unit": "µM·h"},
      {"measurement": "CL/F", "setting": "in vivo; C57/B6, serum, 100 mg/kg i.p.", "result": 63.3, "unit": "mL/min/kg"},
      {"measurement": "Cmax", "setting": "in vivo; C57/B6, serum, 100 mg/kg i.p.", "result": "241 ± 106", "unit": "µM"},
      {"measurement": "half-life", "setting": "in vivo; C57/B6, serum, 100 mg/kg i.p., read-out: Serum t 1/2 (converted)", "result": 14.6, "unit": "min"},
      {"measurement": "AUC", "setting": "in vivo; C57/B6, serum, 300 mg/kg i.p.", "result": "436 ± 42", "unit": "µM·h"},
      {"measurement": "CL/F", "setting": "in vivo; C57/B6, serum, 300 mg/kg i.p.", "result": 52.5, "unit": "mL/min/kg"},
      {"measurement": "Cmax", "setting": "in vivo; C57/B6, serum, 300 mg/kg i.p.", "result": "374 ± 49", "unit": "µM"},
      {"measurement": "half-life", "setting": "in vivo; C57/B6, serum, 300 mg/kg i.p., read-out: Serum t 1/2 (converted)", "result": 28.1, "unit": "min"},
      {"measurement": "AUC", "setting": "in vivo; C57/B6, serum, 500 mg/kg i.p.", "result": "717 ± 83", "unit": "µM·h"},
      {"measurement": "CL/F", "setting": "in vivo; C57/B6, serum, 500 mg/kg i.p.", "result": 53.2, "unit": "mL/min/kg"},
      {"measurement": "Cmax", "setting": "in vivo; C57/B6, serum, 500 mg/kg i.p.", "result": "451 ± 49", "unit": "µM"},
      {"measurement": "half-life", "setting": "in vivo; C57/B6, serum, 500 mg/kg i.p., read-out: Serum t 1/2 (converted)", "result": 41, "unit": "min"},
      {"measurement": "Serum V/F", "setting": "in vivo; 100 mg/kg i.p.", "result": 2.62, "unit": "L/kg"},
      {"measurement": "time after administration up to which detectable in sera", "setting": "in vivo; 100 mg/kg i.p.", "result": "up to 4 h"},
      {"measurement": "time after administration up to which quantifiable in brain", "setting": "in vivo; 100 mg/kg i.p.", "result": "up to 8 h"},
      {"measurement": "time after administration up to which quantifiable in kidney", "setting": "in vivo; 100 mg/kg i.p.", "result": "up to 4 h"},
      {"measurement": "time after administration up to which quantifiable in liver", "setting": "in vivo; 100 mg/kg i.p.", "result": "up to 2 h"},
      {"measurement": "time after administration up to which quantifiable in sera", "setting": "in vivo; 100 mg/kg i.p.", "result": "up to 2 h"},
      {"measurement": "Brain AUC", "setting": "in vivo; [10]", "result": "139 ± 60", "unit": "µM·h"},
      {"measurement": "Brain Cmax", "setting": "in vivo; [10]", "result": "60 ± 9.5", "unit": "µM"},
      {"measurement": "Kidney AUC", "setting": "in vivo; [10]", "result": "24.5 ± 5.3", "unit": "µM·h"},
      {"measurement": "Kidney Cmax", "setting": "in vivo; [10]", "result": "23.6 ± 3.0", "unit": "µM"},
      {"measurement": "Liver AUC", "setting": "in vivo; [10]", "result": "1150 ± 595", "unit": "µM·h"},
      {"measurement": "Liver Cmax", "setting": "in vivo; [10]", "result": "1695 ± 2030", "unit": "µM"},
      {"measurement": "Serum V/F", "setting": "in vivo; 300 mg/kg i.p.", "result": 2.93, "unit": "L/kg"},
      {"measurement": "Brain AUC", "setting": "in vivo; [11]", "result": "313 ± 33", "unit": "µM·h"},
      {"measurement": "Brain Cmax", "setting": "in vivo; [11]", "result": "141 ± 45", "unit": "µM"},
      {"measurement": "Serum V/F", "setting": "in vivo; 500 mg/kg i.p.", "result": 4.25, "unit": "L/kg"},
      {"measurement": "Brain AUC", "setting": "in vivo; [12]", "result": "1280 ± 175", "unit": "µM·h"},
      {"measurement": "Brain Cmax", "setting": "in vivo; [12]", "result": "530 ± 70", "unit": "µM"},
      {"measurement": "increase in heart rate induced by GHB", "setting": "rat [8]", "result": "reversed the ↑ in heart rate"},
      {"measurement": "pressor response induced by GHB", "setting": "rat [8]", "result": "not the pressor response"},
      {"measurement": "lifespan of SSADHD mice", "setting": "aldh5a1^−/− mice", "result": "significant lifespan extension"},
      {"measurement": "blood ethanol levels", "setting": "rat [9]", "result": "NCS-382 reduces blood ethanol levels, likely due to a lessened absorption of ethanol from the gastrointestinal tract."}
    ]}
  ]
}
